The source of these data is US10034913B2, “Anti-angiogenic peptides and uses thereof” (Health Research, Inc., priority 2011, dated 2018).

For one test, the system named is PC-3M cells. The settings on record: cited from earlier work.
Another test has as its system PC-3M xenografts. Briefly: Growth of PC-3M xenografts in nude mice. Conditions: PSA administered in the tumor vicinity; control animals 267 mm^3. The test is classed as in vivo. The text has this: PSA purified to homogeneity from human seminal plasma is enzymatically active, and free of contaminating hk2, and complexes with carrier proteins/chaperones (Bindukumar, B., et al., J Chromatogr B Analyt Technol Biomed Life Sci, 2004. 813(1-2): p. 113-20).

The next test concerns HUVEC cells. Nature of the test: Expression of angiogenesis/vasculogenesis genes in HUVEC, enzymatically active vs inactive PSA. It is filed as cell-based, human. On the procedure:
Enzymatically active PSA, and PSA inactivated by incubation with Zinc^2+ [activity inhibited>75% by 5.0 μM of Zinc, inset FIG. 4] were compared for their respective effects on expression of genes involved in angiogenesis/vasculogenesis in HUVEC cells.

Test [1] deals with FAK gene expression in HUVEC. Briefly: FAK gene expression in HUVEC, Real-time QPCR. The settings on record: 10 uM, average of three experiments. The test is classed as cell-based, human. On the procedure:
FIG. 16 is a graphical representation of data showing modulation of FAK gene expression in HUVEC by f-PSA and PSA-P3L. To produce the results summarized in FIG. 16, nearly confluent monolayers of HUVEC were treated with 10 uM of f-PSA or PSA-P3L; RNA extracted and reverse transcribed. The c-DNA was amplified by Real-time QPCR using specific primers. The results shown are the average of three experiments. […] The other experimental details are similar to all gene expression studies. Thus, in one embodiment, the invention provides a method for inhibiting FAK gene expression in human endothelial cells comprising contacting the cells with one or more peptides of the invention.

The test system of test [2] is VEGF gene expression in HUVEC. Briefly: VEGF gene expression in HUVEC, Real-time QPCR. It is filed as cell-based, human. The settings on record: 10 uM, average of three experiments. As for the experimental part: FIG. 17 is a graphical representation of data showing modulation of VEGF gene expression in HUVEC by f-PSA, PSA-P3L and PSA-P3C. To produce the results summarized in FIG. 17, nearly confluent monolayers of HUVEC were treated with 10 uM of f-PSA or PSA-P3L; RNA extracted and reverse transcribed. The c-DNA was amplified by Real-time QPCR using specific primers. The results shown are average of three experiments. […] The data represents an average of three experiments. […] Thus, in one embodiment, the invention provides a method for inhibiting VEGF expression in human endothelial cells comprising contacting the cells with one or more peptides of the invention.

For “f-PSA: PSA isolated from human seminal plasma, free and enzymatically active; 237 amino acid protein (residues 25-261)”, the “effect on VEGF and IFN-γ gene expression and protein release” value in the test on PC-3M cells is listed as “distinctly dose dependent”. This substance returned a mean tumor volume with PC-3M xenografts of 13 mm^3. Further, in the test on HUVEC cells, the “expression of blood vessel development genes FAK, FLT, KDR, TWIST1, Cathepsin D and P-38” value was “equally effective”; the “negative modulation of expression of pro-angiogenic growth factors bFGF and VEGF” value is listed as “equally effective”; the “positive modulation of expression of IFN-γ” value is “equally effective”. Besides, the FAK gene expression entry in test [1] is “significantly down-regulates”. Also, in test [2], the VEGF gene expression entry is recorded as “significantly down-regulate”.
